Data on one compound can be found in publication PMC7029871, “Development and validation of a sensitive LC-MS/MS method for the quantitation of IMB-YH-4py5-2H, an antituberculosis candidate, and its application to the pharmacokinetic study” (PLoS ONE, 2020).

SMILES strings stand for the structures. Like-named read-outs stand apart in the source and are kept apart here.

Data set [1] in a line: Distribution in plasma, lung homogenate, ELF and AMs after oral dose. It counts as in vivo, Sprague-Dawley rats. The note with it: rat, single oral dose 100 mg/kg; for concentration at 8 h / concentration at 30 h / concentration at 0.083 h / concentration at 0.5 h: both sexes, Sprague-Dawley. The procedure:
After the oral administration of 100 mg/kg IMB-YH-4py5-2H, rats from each group (six rats per group and three rats per sex) were sacrificed at 5 min, 0.5 h, 8 h, and 30 h. Rat lungs were collected, rinsed with saline, wiped dry, accurately weighed and homogenized with ultrapure water. The homogenate was kept at −20°C until analysis.
As two representative infectious sites in lower respiratory tract infections, lung epithelial lining fluid (ELF) and alveolar macrophages (AMs) were investigated to determine the distribution of IMB-YH-4py5-2H. Freshly collected rat lungs were lavaged three times from the trachea with 5 mL of ice-cold phosphate buffer (pH 7.4). The lavage fluid was centrifuged at 4°C (650 × g, 5 min) to separate AMs from the ELF, immediately. The cell counts of the resuspended AMs were assessed by using the haemocytometer. The AMs were extracted with 1 mL of 0.1 M NaOH for analysis. To calculate the concentrations of IMB-YH-4py5-2H in ELF and AMs, reported data were employed. As reported, the total volume of ELF was estimated to be 393 μL/rat (~200 g body weight), and the intracellular volume of a single AM was 1166 μm^3 [25]. Based on the reported volume of a single AM, the raw data of IMB-YH-4py5-2H concentrations in AMs, expressed as ng/10^5 cells, were converted to the values with the unit of μg/mL (Eq 1), which was consistent with the unit of concentrations in plasma and ELF and easier for comparison.
CAM (μg/mL) is the concentration of IMB-YH-4py5-2H expressed as μg/mL, CAM (ng/10^5 cells) is the concentration with the unit of ng/10^5 cell, and V is the volume of a single AM (1166 μm^3).
The homogenate, ELF, and AM samples were processed as described in “Sample processing” and injected into the LC-MS/MS system for analysis.

The nature of data set [2]: Metabolic stability assay in human liver microsomes. It counts as in vitro ADME. The note with it: pH 7.4, HLMs 0.1 mg/mL, 37°C, NADPH. The procedure:
IMB-YH-4py5-2H was incubated at 37°C for 0, 15, 30, 45, and 60 min in human liver microsomes (HLMs) for the metabolic stability study. The incubation system included 0.1 mg/mL pooled liver microsomes, 100 mM phosphate-buffered saline (PBS, pH 7.4), NADPH regeneration system (the final concentration contained 3.3 mM glucose-6-phosphate, 1.3 mM NADP^+, 0.4 U/mL glucose-6-phosphate dehydrogenase and 3.3 mM MgCl2), and 1 μM IMB-YH-4py5-2H.
(§1) After incubation, the samples were processed as described in “Sample processing”. All experiments were performed in triplicate. The concentration of IMB-YH-4py5-2H was measured using LC-MS/MS analysis.
A general note: Liver microsomes are vesicles of endoplasmic reticulum, rich in cytochrome P450 enzymes.

A further data set addresses T1, CYP1A2 (Homo sapiens, UniProt P05177).
T1 construct: purchased Corning (Woburn, MA, USA)
T1 sequence (P05177 1-516): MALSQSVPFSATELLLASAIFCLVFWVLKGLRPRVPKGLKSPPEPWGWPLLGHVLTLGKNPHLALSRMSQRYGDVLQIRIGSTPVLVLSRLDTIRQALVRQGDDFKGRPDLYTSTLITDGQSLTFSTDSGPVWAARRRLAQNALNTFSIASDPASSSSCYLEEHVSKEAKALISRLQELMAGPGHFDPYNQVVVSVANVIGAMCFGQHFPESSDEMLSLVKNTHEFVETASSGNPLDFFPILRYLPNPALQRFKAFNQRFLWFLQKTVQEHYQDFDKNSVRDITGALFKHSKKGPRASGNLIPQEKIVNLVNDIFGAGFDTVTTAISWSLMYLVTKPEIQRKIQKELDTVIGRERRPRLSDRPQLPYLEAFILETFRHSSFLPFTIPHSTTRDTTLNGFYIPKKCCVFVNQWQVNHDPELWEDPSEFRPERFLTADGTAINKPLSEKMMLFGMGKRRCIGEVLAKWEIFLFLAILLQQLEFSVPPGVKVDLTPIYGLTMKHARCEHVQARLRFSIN
Nature of the data set: Metabolism by recombinant human P450 enzyme. In kind it is in vitro ADME. The note with it: recombinant CYP1A2 0.05 nmol/mL, 1 μM, 30 min. The procedure: (§2) In addition, to characterize the enzymes that may be involved in microsomal metabolism, IMB-YH-4py5-2H was incubated at 37°C for 30 min with different recombinant human P450 enzymes, i.e., CYP1A2, CYP2A6, CYP2B6, CYP2C8, CYP2C9, CYP2C19, CYP2D6, CYP2E1, CYP3A4 and CYP3A5. The incubation system included CYP isoenzyme at a final concentration of 0.05 nmol/mL, 100 mM PBS (pH 7.4) or 100 mmol/L Tris buffer (pH 7.5, Tris buffer was used in the CYP2C9 and CYP2A6 reaction systems and PBS was used for the other enzymes), NADPH regeneration system, and 1 μM IMB-YH-4py5-2H.
as §1

A further data set addresses T2, CYP2A6 (Homo sapiens, UniProt P11509).
T2 construct: purchased Corning (Woburn, MA, USA)
T2 sequence (P11509 1-494): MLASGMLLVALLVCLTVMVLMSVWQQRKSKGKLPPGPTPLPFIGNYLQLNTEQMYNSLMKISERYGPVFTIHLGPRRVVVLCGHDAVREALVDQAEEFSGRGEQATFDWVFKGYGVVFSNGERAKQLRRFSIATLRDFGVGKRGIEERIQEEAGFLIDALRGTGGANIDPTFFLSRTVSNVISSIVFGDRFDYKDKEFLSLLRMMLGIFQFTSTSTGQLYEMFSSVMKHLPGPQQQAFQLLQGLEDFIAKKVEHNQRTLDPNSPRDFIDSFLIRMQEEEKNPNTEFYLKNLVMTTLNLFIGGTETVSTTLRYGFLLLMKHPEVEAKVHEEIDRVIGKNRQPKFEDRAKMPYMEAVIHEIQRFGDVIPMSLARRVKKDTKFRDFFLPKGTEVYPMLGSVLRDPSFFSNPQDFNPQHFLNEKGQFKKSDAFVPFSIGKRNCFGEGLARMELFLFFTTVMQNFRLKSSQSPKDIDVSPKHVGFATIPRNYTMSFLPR
The data set is described as follows: Metabolism by recombinant human P450 enzyme. As to conditions: recombinant CYP2A6 0.05 nmol/mL, 1 μM, 30 min. It counts as in vitro ADME. The procedure:
as §2, §1

Take `CN(C)C(=O)/C=C/C(=O)c1ccc(-c2ccncc2)cc1.Cl` [IMB-YH-4py5-2H, (E)-N,N-dimethyl-4-oxo-4-(4-(pyridin-4-yl)phenyl)but-2-enamide hydrochloride]: the concentration at 8 h in data set [1] (alveolar macrophages (AMs), 8 h, converted with reported volume of a single AM (Eq 1), read-out: Concentration, AMs) came out at 99.7 ± 36.7 µg/mL; in data set [1] (lung epithelial lining fluid (ELF), 8 h, ELF volume taken as 393 μL/rat, read-out: Concentration, ELF) it was 0.121 ± 0.032 µg/mL; in data set [1] (lung homogenate, 8 h, read-out: Concentration, lung homogenate), 107 ± 22 ng/g; in data set [1] (plasma, 8 h, read-out: Concentration, Plasma), 0.155 ± 0.029 µg/mL. For the same compound, the concentration at 30 h in data set [1] (alveolar macrophages (AMs), 30 h, converted with reported volume of a single AM (Eq 1), read-out: Concentration, AMs) was determined as 25.3 ± 19.4 µg/mL; in data set [1] (lung epithelial lining fluid (ELF), 30 h, ELF volume taken as 393 μL/rat, read-out: Concentration, ELF), 0.05 ± 0.045 µg/mL; in data set [1] (lung homogenate, 30 h, read-out: Concentration, lung homogenate), 11 ± 3 ng/g; in data set [1] (plasma, 30 h, read-out: Concentration, Plasma), 0.039 ± 0.012 µg/mL. Further, the concentration at 0.083 h is 0.639 ± 0.093 µg/mL in data set [1] (lung epithelial lining fluid (ELF), 0.083 h, ELF volume taken as 393 μL/rat, read-out: Concentration, ELF); 4410 ± 607 ng/g in data set [1] (lung homogenate, 0.083 h, read-out: Concentration, lung homogenate); 0.917 ± 0.071 µg/mL in data set [1] (plasma, 0.083 h, read-out: Concentration, Plasma). Further, the concentration at 0.5 h in data set [1] (lung epithelial lining fluid (ELF), 0.5 h, ELF volume taken as 393 μL/rat, read-out: Concentration, ELF) turned out to be 1.8 ± 0.264 µg/mL; in data set [1] (lung homogenate, 0.5 h, read-out: Concentration, lung homogenate), 10900 ± 1960 ng/g; in data set [1] (plasma, 0.5 h, read-out: Concentration, Plasma) it was 1.06 ± 0.192 µg/mL. The “Concentration, AMs” value in data set [1] (0.083 h) was found to be 166.763±40.110 ng/10^5 cells; in data set [1] (0.083 h, converted with reported volume of a single AM (Eq 1)), 1494.295 ± 359.408 µg/mL; in data set [1] (0.5 h), 227.198±35.589 ng/10^5 cells; in data set [1] (0.5 h, converted with reported volume of a single AM (Eq 1)) it was 2035.827 ± 318.898 µg/mL; in data set [1] (8 h), 11.128±4.099 ng/10^5 cells; in data set [1] (30 h) it was 2.823±2.164 ng/10^5 cells. Also, the half-life – broadly, how long it takes for the measured level to halve – at 1 μM in data set [2] was < 15 min. Moreover, the “metabolism by CYP isozyme” value on CYP1A2 and at CYP2A6 was “high metabolic activity” throughout.
